Results taken from US20230345986A1, “CONJUGATED DIYNES AND THEIR USE AS FLAVOR MODIFIERS” (Firmenich SA, priority 2020, published 2023).

What was measured:
[1] = system: panel of 20 taste testers; experiment: Sensory testing for salt enhancement (taste panel, sodium chloride solution); type: in vivo; design: key to Difference (salt enhancement effect relative to the same salt solution without the enhancer): None: No effect; +: Weak; ++: Moderate; +++: Strong
Protocol: Compounds 101 and 130 were evaluated for their salt-enhancement effects by a panel of 20 taste testers. The test compounds were added to solutions (0.25 wt %) sodium chloride, and tested for their sale enhancement effect relative to the same salt solution without the enhancer.

[2] = Sensory testing for cooling/burning (tasting of compound in water solution); type: in vivo; details: for taste attributes: 20 mg/L in water solution
Protocol: At 2 mg/L, Compound 130 was tasteless.
At 39.2 mg/L, the tingling effect was weak. […] At 2 mg/L, Compound 101 was tasteless.

[3] = 10 ppm test compound in 0.25 wt % sodium chloride solution
[4] = 20 ppm test compound in 0.25 wt % sodium chloride solution

Compound | Difference (salt enhancement effect relative to the same salt solution without the enhancer) [1, 3] | Remarks (salt enhancement effect) [1, 3] | Difference (salt enhancement effect relative to the same salt solution without the enhancer) [1, 4] | Remarks (salt enhancement effect) [1, 4] | taste description ([2]; 2 mg/L in water solution) | taste attributes [2] | tingling effect ([2]; 39.2 mg/L in water solution) | taste description ([2]; 125 mg/L in water solution) | taste description ([2]; 42 mg/L in water solution)
C#CC#CCCCCC(=O)N1CCCCC1 [Compound 101, nona-6,8-diynoic acid piperidide] | None | No effect | + | Weak | tasteless | astringent, bitter, herbal, earthy and green | weak | tingling (mid intensity), bitter, metallic, astringent and triggered an uncomfortable feeling in the throat when swallowed | –
C#CC#CCC/C=C/C=C/C(=O)N1CCCCC1 [Compound 130, (E,E)-2,4-undecadien-8,10-diynoic acid piperidide] | ++ | Moderate | ++ | Moderate | tasteless | astringent, bitter, salty, earthy, herbal, and cooling, but no warm and hot sensation was perceived | – | – | long-lasting warm, hot, weak cooling after taste, as well as bitter and astringent
